Laboratory results published in article PMC12284618 (Chemistry (Weinheim an Der Bergstrasse, Germany), 2025).
Counter-ions that a name gives are not always drawn. Like-named read-outs stand apart in the source and are kept apart here.

What was measured:
CI‐M6P/IGF2R:D1–D15 = biological target: T1, CI‐M6P/IGF2R:D1–D15 (Homo sapiens, UniProt P11717); experiment: Competitive fluorescence polarization assay (displacement of fluorescent glycopeptide 1); type: binding; details: for Potency (relative binding potency): (IC50 of compound 2 / IC50 of compound) × 100
T1 construct: domains 1–15 (residues AA 41–2304); gp67 signal peptide (X1) (N, cleaved yes); 6‐His‐tag (C); PreScission protease cutting site (C); TwinStrep‐tag (C); made in house; host or cells: Spodoptera frugiperda Sf9 insect cells (baculovirus, pFastBac-1), secreted into the medium
Protocol: The recombinant bacmid DNA was purified using alkaline extraction and transfected using ExpiFectamine‐Sf (Thermo Fisher Scientific) into Spodoptera frugiperda 9 (Sf9) cells. The first generation of recombinant baculovirus was harvested after 5 days post‐transfection and amplified in subsequent shaking cultures of Sf9 in SF‐900 II serum‐free media (Thermo Fisher Scientific) at 27 °C and 130 rpm at a density of 2 × 10^6 cells/ml. Media containing viral particles were harvested after four days, and the amplification step was repeated to obtain high‐titer P2 stock, which was then used in large‐scale expression. […] The column was washed with a buffer containing 100 mM Tris‐HCl and 150 mM NaCl (pH 8.0), and the recombinant protein was eluted using the same buffer supplemented with 50 mM biotin. Expression of the recombinant protein was assessed by SDS‐PAGE and Western Blot analysis. Folding was checked by a competitive binding assay with radioactively labeled IGF2 (a natural ligand of IGF2R).^[ [25] ^]
(§1) We employed a fluorescence polarization (FP) binding assay to assess the binding affinity of the tested compounds for a soluble CI‐M6P/IGF2R ectodomain construct. This method monitors the rotational speed of a fluorescent probe—specifically, a fluorescein‐labeled glycopeptide 1. Upon binding to the CI‐M6P/IGF2R protein, the probe's rotation slows, resulting in increased fluorescence polarization. This shift is quantified as anisotropy (or polarization), which reflects the ratio of bound to free probe, enabling binding affinity estimation without phase separation.^[ [26] ^]
In all experiments, the compounds were dissolved in water and serially diluted with water in Echo Qualified 384‐Well PP Source Microplates using a BRAVO pipetting station (Agilent, USA). The compounds were then pre‐spotted onto black 384‐well low‐volume round‐bottom plates (Corning, USA) using an Echo 650 liquid handler (Beckman Coulter, USA) to obtain the desired final compound concentrations. Subsequently, 5 µL of the prepared mixture (soluble receptor and glycopeptide 1 in 100 mM Tris/HCl, 150 mM NaCl, pH 8.0) was added using either a MANTIS Liquid Dispenser (Formulatrix, Dubai, United Arab Emirates) or a Clicktip pipette (Thermo Fischer Scientific, USA). The plate was sealed with Duck Tape (Hampton Research USA) to prevent evaporation, shaken for 10 s at 800 rpm, centrifuged to remove bubbles, and then incubated at room temperature.
Next, competitive FP experiments were performed using a procedure analogous to previously reported methods.^[ [27] ^] […] Subsequently, 5 µL of a mixture containing CI‐M6P/IGF2R:D1–D15 (final concentration: 300 nM) and fluorescent glycopeptide 1 (final concentration: 10 nM) was added using a MANTIS Liquid Dispenser. The anisotropy data from the plate reader were plotted against the compound concentration using GraphPad Prism 8.0. A nonlinear regression analysis, “log [Inhibitor] versus response – Variable slope (four parameters),” was used to calculate the IC₅₀ values (the concentration at which half‐maximal inhibition is achieved) for each competition experiment. Relative binding affinities were calculated as (IC₅₀ of compound 2 / IC₅₀ of each compound) × 100 (%).

CI‐M6P/IGF2R = biological target: CI‐M6P/IGF2R; set-up: method as in PMID 3003148; details: monomeric M6P; cited from earlier work
[1] = biological target: T2, soluble CI‐M6P/IGF2R:D1–D15 (Homo sapiens, UniProt P11717); experiment: Reverse saturation fluorescence polarization binding of fluorescent glycopeptide 1
T2 construct: domains 1–15 (residues AA 41–2304); gp67 signal peptide (X1) (N, cleaved yes); 6‐His‐tag (C); PreScission protease cutting site (C); TwinStrep‐tag (C); made in house; host or cells: Spodoptera frugiperda Sf9 insect cells (baculovirus, pFastBac-1), secreted into the medium
Text: The gene encoding human CI‐M6P/IGF2R domains 1–15 (residues AA 41–2304) fused to an N‐terminal gp67 signal peptide ([…]) and C‐terminal 6‐His‐tag, PreScission protease cutting site, and TwinStrep‐tag in pFastBac‐1 vector was used for bacmid generation in DH10Bac E. coli (Thermo Fisher Scientific). The recombinant bacmid DNA was purified using alkaline extraction and transfected using ExpiFectamine‐Sf (Thermo Fisher Scientific) into Spodoptera frugiperda 9 (Sf9) cells. […] Expression of the recombinant protein was assessed by SDS‐PAGE and Western Blot analysis. […]
as §1, with “This method monitors the rotational speed of a fluorescent probe—specifically, a fluorescein‐labeled glycopeptide 1.” left out, “^] […]” for “^]”
We first analyzed the interaction between soluble CI‐M6P/IGF2R:D1–D15 and the fluorescent probe (glycopeptide 1) using a reverse saturation binding assay in solution. […]

[2] = receptor 300 nM, glycopeptide 1 10 nM, pH 8.0, mean of two independent measurements in triplicate ± S.D., read-out: IC50
[3] = receptor 300 nM, glycopeptide 1 10 nM, pH 8.0, mean of two independent measurements in triplicate ± S.D.

Compound	IC50 (CI‐M6P/IGF2R:D1–D15; [2]) [nM]	Potency (relative binding potency) (CI‐M6P/IGF2R:D1–D15) [%]	further results
CC(=O)N[C@@H](Cc1cn(CCO[C@H]2O[C@H](CCP(=O)(O)O)[C@@H](O)[C@H](O)[C@@H]2O)nn1)C(=O)N[C@@H](Cc1c[nH]c2ccccc12)C(=O)N[C@@H](Cc1cn(CCO[C@H]2O[C@H](CCP(=O)(O)O)[C@@H](O)[C@H](O)[C@@H]2O)nn1)C(N)=O [Compound 6]	660 ± 900		
O=P(O)(O)CC[C@H]1O[C@H](C/C=C/c2ccc(O)cc2)[C@@H](O)[C@@H](O)[C@@H]1O [Compound 13]	4200 ± 20	11.3	fold increase in binding affinity compared to compound 8 (CI‐M6P/IGF2R:D1–D15): almost threefold
NC(=O)[C@H](Cc1cn(CCO[C@H]2O[C@H](CCP(=O)(O)O)[C@@H](O)[C@H](O)[C@@H]2O)nn1)NC(=O)[C@H](Cc1c[nH]c2ccccc12)NC(=O)[C@@H](N)Cc1cn(CCO[C@H]2O[C@H](CCP(=O)(O)O)[C@@H](O)[C@H](O)[C@@H]2O)nn1 [Compound 5]	480 ± 100		
CO[C@H]1O[C@H](CCC(=O)O)[C@@H](O)[C@H](O)[C@@H]1O [Compound 11]	56000 ± 12000	0.85	fold reduction in binding affinity compared to native M6P 7 (CI‐M6P/IGF2R:D1–D15): fivefold
mannose‐6‐phosphate [Compound 7]			Kd (CI‐M6P/IGF2R): ~7 µM
CC(=O)N[C@@H](Cc1c[nH]c2ccccc12)C(=O)N[C@@H](Cc1ccccc1)C(=O)NCC(=O)N[C@@H](CO)C(=O)N[C@@H](Cc1cn(CCO[C@H]2O[C@H](CCP(=O)(O)O)[C@@H](O)[C@H](O)[C@@H]2O)nn1)C(=O)N[C@@H](CCCCN)C(=O)N[C@@H](Cc1cn(CCO[C@H]2O[C@H](CCP(=O)(O)O)[C@@H](O)[C@H](O)[C@@H]2O)nn1)C(=O)N[C@@H](CO)C(=O)N[C@@H](Cc1cn(CCO[C@H]2O[C@H](CCP(=O)(O)O)[C@@H](O)[C@H](O)[C@@H]2O)nn1)C(=O)N[C@@H](CCCCN)C(=O)N[C@@H](Cc1cn(CCO[C@H]2O[C@H](CCP(=O)(O)O)[C@@H](O)[C@H](O)[C@@H]2O)nn1)C(=O)N[C@@H](CO)C(=O)N[C@@H](Cc1cn(CCO[C@H]2O[C@H](CCP(=O)(O)O)[C@@H](O)[C@H](O)[C@@H]2O)nn1)C(=O)N[C@@H](CCCCN)C(N)=O [Compound 2]	480 ± 110	100.0	
NCCCC[C@H](NC(=O)[C@H](Cc1cn(CCO[C@H]2O[C@H](CCP(=O)(O)O)[C@@H](O)[C@H](O)[C@@H]2O)nn1)NC(=O)[C@H](CO)NC(=O)[C@H](Cc1cn(CCO[C@H]2O[C@H](CCP(=O)(O)O)[C@@H](O)[C@H](O)[C@@H]2O)nn1)NC(=O)[C@H](CCCCN)NC(=O)[C@H](Cc1cn(CCO[C@H]2O[C@H](CCP(=O)(O)O)[C@@H](O)[C@H](O)[C@@H]2O)nn1)NC(=O)[C@H](CO)NC(=O)[C@H](Cc1cn(CCO[C@H]2O[C@H](CCP(=O)(O)O)[C@@H](O)[C@H](O)[C@@H]2O)nn1)NC(=O)[C@H](CCCCN)NC(=O)[C@H](Cc1cn(CCO[C@H]2O[C@H](CCP(=O)(O)O)[C@@H](O)[C@H](O)[C@@H]2O)nn1)NC(=O)[C@H](CO)NC(=O)CNC(=O)c1ccc2c(c1)C(=O)OC21c2ccc(O)cc2Oc2cc(O)ccc21)C(N)=O [Compound 1]			Kd ([1]; glycopeptide 1 10 nM titrated with receptor 0-1500 nM, pH 8.0, read-out: dissociation constant (Kd)): ~400 nM; cooperativity coefficient (n), Hill koef ([1]; specific binding with Hill slope, glycopeptide 1 10 nM): −2.35
CO[C@H]1O[C@H](CCc2nnn[nH]2)[C@@H](O)[C@H](O)[C@@H]1O [Compound 10]			IC50 (CI‐M6P/IGF2R:D1–D15; [3]): did not bind and unmeasurably low and n.b.
CO[C@H]1O[C@H](CP(=O)(O)O)[C@@H](O)[C@H](O)[C@@H]1O [Compound 9]	137000 ± 2000	0.35	
CC(=O)NCCCC[C@H](NC(=O)[C@H](Cc1cn(CCO[C@H]2O[C@H](CCP(=O)(O)O)[C@@H](O)[C@H](O)[C@@H]2O)nn1)NC(=O)[C@H](Cc1c[nH]c2ccccc12)NC(=O)[C@H](Cc1cn(CCO[C@H]2O[C@H](CCP(=O)(O)O)[C@@H](O)[C@H](O)[C@@H]2O)nn1)NC(C)=O)C(=O)N[C@@H](Cc1cn(CCO[C@H]2O[C@H](CCP(=O)(O)O)[C@@H](O)[C@H](O)[C@@H]2O)nn1)C(N)=O [Compound 4]			IC50 (CI‐M6P/IGF2R:D1–D15): 490 ± 70 nM
NCCCC[C@H](NC(=O)[C@H](Cc1cn(CCO[C@H]2O[C@H](CCP(=O)(O)O)[C@@H](O)[C@H](O)[C@@H]2O)nn1)NC(=O)[C@H](Cc1c[nH]c2ccccc12)NC(=O)[C@@H](N)Cc1cn(CCO[C@H]2O[C@H](CCP(=O)(O)O)[C@@H](O)[C@H](O)[C@@H]2O)nn1)C(=O)N[C@@H](Cc1cn(CCO[C@H]2O[C@H](CCP(=O)(O)O)[C@@H](O)[C@H](O)[C@@H]2O)nn1)C(N)=O [Compound 3]			IC50 (CI‐M6P/IGF2R:D1–D15): 490 ± 40 nM
CO[C@H]1O[C@H](CCP(=O)(O)O)[C@@H](O)[C@H](O)[C@@H]1O [Compound 8, Methyl 6-deoxy-6-phosphonomethyl-α-D-mannopyranoside bis(triethylammonium) salt]		4.1	IC50 (CI‐M6P/IGF2R:D1–D15; values used for comparison with calculations, read-out: experimental IC50 (as listed in Tables S1-S3)): 11500 nM
CO[C@H]1O[C@H](Cc2nnn[nH]2)[C@@H](O)[C@H](O)[C@@H]1O [Compound 12]			IC50 (CI‐M6P/IGF2R:D1–D15; [3]): did not bind and unmeasurably low and n.b.
